{
  "source": "patent US20120009183A1",
  "about": "“METHOD FOR TREATMENT OF PANCREATITIS” (Ore Pharmaceuticals Inc., priority 2007, published 2012)",
  "key": {"[1]": {"test_system": "acute pancreatitis induced by cerulein", "settings": "Tsang et al. (2004); cited from earlier work"}, "[2]": {"test_system": "NF-κB dependent transcription", "experiment": "LPS-induced NF-κB dependent transcription in extracted organs of NF-κB::Luc mice (luciferase assay)", "type": "in vivo", "settings": "30 mg/kg GL1001 + 0.5 mg/kg LPS vs LPS alone; stomach", "excerpt": "For luciferase assays, organs were extracted and snap frozen in liquid nitrogen. All tissue samples were placed in lysis buffer with inhibitors (Passive Lysis Buffer (Promega) and Complete Mini Protease Inhibitor Cocktail (Roche, Indianapolis, Ind.)), and were homogenized using a tissue homogenizer (Handishear, Hand-held homogenizer, VirTis, Gardiner, N.Y.). Tissue homogenates were centrifuged and clarified lysates were used for luminometer assays and western blots. For the luminometer assays, Luciferase Assay Substrate (Luciferase Assay System, Promega) was prepared as indicated by the manufacturer and placed in disposable cuvettes. […] Background luminescence readings were obtained and the background readings were subtracted from the luminescent data. Protein concentrations were determined using the BCA Protein Assay Kit (Pierce, Rockford, Ill.) following the manufacturer's protocols and analyzed using a VERSAmax tuneable microplate reader and associated Softmax Pro version 3.1.2 software (Molecular Devices, Sunnyvale Calif.). The luminescence for each of the protein lysates was calculated as arbitrary units of light per microgram of protein. […]\nGL1001 was further tested for in vivo anti-inflammatory activity by examining its effects on bacterial LPS induced NF-κB dependent transcription, in NF-κB::Luc mice. […] Luciferase signal was quantitated from several regions of interest. […]"}, "[3]": {"test_system": "activator protein-1 (AP-1)", "experiment": "Basal in vivo reporter luciferase expression in AP-1::Luc mice", "settings": "data not shown"}, "[4]": {"test_system": "NF-κB dependent transcription", "experiment": "TNFα-induced activation of NF-κB in recombinant HeLa reporter cells (luciferase)", "type": "cell-based", "settings": "TNFα 20 ng/ml, 6 hours, HeLa NF-κB-luc", "excerpt": "To test the ACE2 inhibitor GL1001 for anti-inflammatory activity relevant to gastrointestinal inflammatory disease, more particularly pancreatitis, effects of the compound on activation of NF-κB dependent transcription by TNFα were examined in recombinant reporter cells containing a construct with a luciferase reporter gene under control of NF-κB dependent regulatory sequences, thereby allowing detection of NF-κB dependent transcription by measuring reporter enzyme using a conventional luciferase activity assay based on detection of generated light.\nIn particular, HeLa cells (American Type Culture Collection) were grown in Dulbecco's modified Eagles medium (DMEM) supplemented with 10% fetal calf serum and transiently transfected with an NF-κB-luc construct (Stratagene, Inc.), as follows (with all incubation steps at 37 C unless otherwise indicated). Cells were seeded and grown to about 70% confluency in a 10 cm cell culture dish. Plasmid DNA (10 μg) was added to 1 ml serum free DMEM media in a tube. Fugene 6 transfection reagent (30 μl) (Roche) was then pipetted slowly into the tube and the contents were gently mixed by inversion. The mixture was incubated at room temperature for 15 minutes and then added dropwise to cells in one 10 cm dish. […] Bioluminescence was then measured using a Veritas luminometer (Turner BioSystems). […]"}, "[5]": {"test_system": "NF-κB dependent transcription", "experiment": "In vivo basal NF-κB dependent transcription in NF-κB::Luc reporter mice, abdominal imaging", "settings": "300 mg/kg s.c., 4 hours post administration; p<0.01", "excerpt": "GL1001 was further tested for in vivo anti-inflammatory activity by examining its effects on basal levels of NF-κB dependent transcription in mice engineered in the germline with a construct containing an NF-κB enhancer linked to a luciferase gene (i.e., NF-κB::Luc mice), such that this NF-κB reporter construct is present in all cells of the mice.\nMore particularly, transgenic NF-κB::Luc mice were generated using three NF-κB response elements from the Igκ light chain promoter fused to a firefly luciferase gene as described by Carlsen et al. (2002) J. Immunol. 168:1441-1446. Pronuclear microinjection of purified construct DNA was used to generate transgenic founders in the C57BL/6 XCBA/J background. Founders were subsequently back crossed to the C57BL/6 albino background. […] Signal data were also quantitated and archived using the Living Image® software. Photons of light were quantitated using an oval region of interest (ROI) of varying sizes depending on the procedure, as described further below.\nTo test for in vivo effects of GL1001 on basal levels of NF-κB dependent transcription, male NF-κB::Luc mice were subjected to quantitative in vivo imaging of the abdominal area (using a fixed ROI of 2.76×3.7 cm) as described above, immediately before, and at 2, […]"}, "[6]": {"test_system": "spontaneous CP in male WBN/Kob rats", "settings": "Kuno et al. (2003); cited from earlier work"}},
  "data": [
    {"smiles": "CCCCc1nc(Cl)c(CO)n1Cc1ccc(-c2ccccc2-c2nn[nH]n2)cc1", "note": "[losartan]", "values": [
      {"measurement": "severity of acute pancreatitis induced by cerulein", "setting": "[1]", "value": "markedly reduced"}
    ]},
    {"smiles": "CC(C)C[C@H](N[C@@H](Cc1cncn1Cc1cc(Cl)cc(Cl)c1)C(=O)O)C(=O)O", "note": "[GL1001, (S,S)-2-[1-carboxy-2-[3-(3,5-dichlorobenzyl)-3H-imidazol-4-yl]-ethylamino]-4-methylpentanoic acid]", "values": [
      {"measurement": "reduction of LPS induced NF-κB-dependent transcription in stomachs", "setting": "[2]", "value": "about 37 fold"},
      {"measurement": "effect on basal in vivo reporter luciferase expression", "setting": "[3]", "value": "no significant effect"},
      {"measurement": "inhibition of TNFα induced activation of NF-κB dependent transcription", "setting": "[4]; at 8 nM", "value": "over 80%"},
      {"measurement": "maximal inhibition of TNFα induced activation of NF-κB dependent transcription", "setting": "[4]; at 0.2 μM", "value": "over 95%"},
      {"measurement": "inhibition of basal in vivo NF-κB dependent transcription in abdominal ROI", "setting": "[5]", "value": "over 40%"}
    ]},
    {"smiles": "NCCCC[C@H](N[C@@H](CCc1ccccc1)C(=O)O)C(=O)N1CCC[C@H]1C(=O)O", "note": "[lisinopril]", "values": [
      {"measurement": "pancreatic fibrosis in animal model of CP", "setting": "[6]", "value": "attenuated"}
    ]}
  ]
}
